The first assay concerns slow reacting substance of anaphylaxis (SRS-A). Put plainly: Inhibition of SRS-A induced contraction of guinea pig ileum. Type of assay: cell-based. The note with it: Cavia porcellus, 0.25 h; compound concentration 5 × 10^-5 M; partially purified SRS-A from guinea pig lung at 40 μg/ml; 15 minute incubation; read-out: Percent Antagonism. As for the experimental part:
The SRS-A antagonist activity of the compounds of this invention is measured by the ability of the active medicament to inhibit SRS-A induced contraction of guinea pig ileum. In this test system, sections of ileum are resected from guinea pigs and placed in 5 ml. tissue baths containing a modified Tyrode's solution. One end of the tissue is fixed to a glass tissue holder, the other is connected to a force-displacement transducer and the tissue is placed under a tension of 500 mg. Isometric tissue contractions are recorded on a six channel polygraph. Baths are constantly aerated with 95% O2 -5% CO2. After a 20 minute stabilization period a concentration of the appropriate agonist which provides a contraction height of 60-80% of the maximum obtainable to that agonist (as determined from full sequential concentration--response curves in separate experiments) is added to the tissue bath and the response recorded. The procedure is repeated until reproducible responses are obtained. For most agonists, two applications in rapid succession, followed 15 minutes later by a third, is sufficient to establish reproducibility. Experimental tissues are incubated with the selected concentration of the test compounds for 15 minutes. Experimental and control tissues are subjected to 5 bath changes during the incubation interval. Changes in bath fluid during the incubation period are helpful in insuring the reproducibility of tissue responses to the agonist. The same concentration of the agonist is reapplied in the presence of the test compound and the response registered and compared with controls. Percent inhibition produced by the test compound is calculated by subtracting the mean percentage change in control tissue from the mean percentage change in tissues exposed to the test compound. Additional compounds are then evaluated as long as the tissue remains reproducibly responsive to the agonist. Six tissues obtained from 6 animals are used simultaneously--3 controls and 3 experimental.
The compounds of this invention tested at concentrations of from 5×10^-5 to 5×10^-6 produce marked antagonism of partially purified slow reacting substance of anaphylaxis obtained from guinea pig lung. The agonist is employed at a concentration of 40 μg/ml. Representative of this effect, tabulated below are a number of the claimed compounds and percent antagonism of SRS-A at various compound concentrations.
For the compound `O=S(=O)(NS(=O)(=O)N1CCc2cc(Cl)ccc2C1)N1CCc2cc(Cl)ccc2C1` [H 6-Cl H H], the inhibition at 50 µM worked out at 84.2%.

Staying with this assay, now noted: Cavia porcellus, 0.25 h; compound concentration 5 × 10^-6 M; partially purified SRS-A from guinea pig lung at 40 μg/ml; 15 minute incubation; read-out: Percent Antagonism.
In the case of `O=S(=O)(NS(=O)(=O)N1CCc2ccc(C(F)(F)F)c(C(F)(F)F)c2C1)N1CCc2ccc(C(F)(F)F)c(C(F)(F)F)c2C1` [7-CF3 8-CF3 H H], the inhibition at 5 µM is 26.8%.

Take `Cc1ccc2c(c1Cl)CN(S(=O)(=O)NS(=O)(=O)N1CCc3ccc(C)c(Cl)c3C1)CC2` [7-CH3 8-Cl H H]: the inhibition at 5 µM was 49.9%.

For the compound `O=S(=O)(NS(=O)(=O)N1CCc2cc(Cl)c(Cl)cc2C1)N1CCc2cc(Cl)c(Cl)cc2C1` [7-Cl 6-Cl H H], the inhibition at 5 µM worked out at 56.3%.

With `CC(C)C1c2c(ccc(Cl)c2Cl)CCN1S(=O)(=O)NS(=O)(=O)N1CCc2ccc(Cl)c(Cl)c2C1C(C)C` (centres unmarked) [7-Cl 8-Cl CH(CH3)2 H], the inhibition at 5 µM was determined as 63%.

For `CC1Cc2ccc(Cl)c(Cl)c2CN1S(=O)(=O)NS(=O)(=O)N1Cc2c(ccc(Cl)c2Cl)CC1C` (centres unmarked) [7-Cl 8-Cl H CH3], the inhibition at 5 µM is 52.5%.

Take `O=S(=O)(NS(=O)(=O)N1CCc2ccc(Cl)c(Cl)c2C1)N1CCc2ccc(Cl)c(Cl)c2C1` [7-Cl 8-Cl H H, N,N'-bis(7,8-dichloro-1,2,3,4,-tetrahydroisoquinolyl)disulfonylimide]: the inhibition at 5 µM worked out at 42%.

Regarding `O=S(=O)(NS(=O)(=O)N1CCc2ccc(Cl)c(Cl)c2C1C1CC1)N1CCc2ccc(Cl)c(Cl)c2C1C1CC1` (centres unmarked) [7-Cl 8-Cl [drawing 3] H], the inhibition at 5 µM stood at 60%.

With `O=S(=O)(NS(=O)(=O)N1CCc2ccc(Cl)c(SC(F)(F)C(F)F)c2C1)N1CCc2ccc(Cl)c(SC(F)(F)C(F)F)c2C1` [7-Cl 8-SCF2 CF2 H H H], the inhibition at 5 µM stood at 36.2%.

For `O=S(=O)(NS(=O)(=O)N1CCc2c(Br)ccc(Br)c2C1)N1CCc2c(Br)ccc(Br)c2C1` [8-Br 5-Br H H], the inhibition at 5 µM was 22.9%.

Turning to `O=S(=O)(NS(=O)(=O)N1CCc2c(Br)cccc2C1)N1CCc2c(Br)cccc2C1` [H 5-Br H H], the inhibition at 5 µM turned out to be 45.2%.

The values above are taken from patent US4317826A, “N,N'-Bis[substituted-1,2,3,4 tetrahydroisoquinolyl]disulfonylimides and antiallergic compositions and method of use” (SmithKline Corporation, priority 1980, dated 1982).
